Source: ChEMBL document CHEMBL3232704, “Discovery of mixed type thymidine phosphorylase inhibitors endowed with antiangiogenic properties: synthesis, pharmacological evaluation and molecular docking study of 2-thioxo-pyrazolo[1,5-a][1,3,5]triazin-4-ones. Part II” (Eur J Med Chem, 2014)

Test: Cytotoxicity against human MDA-MB-231 cells assessed as cell viability at 25 to 100 uM after 72 hrs by MTT assay relative to control
Format: cell-based
Conditions: read-out: Activity

**Q.** With `O=c1[nH]c(=S)[nH]c2cc(-c3ccc(Cl)c(Cl)c3)nn12` as the compound, how does the viability at 72 h, up to 100 µM read?
**A.** The viability at 72 h, up to 100 µM was 80%.

**Q.** With `NC(=S)Nc1nn2c(=O)[nH]c(=S)[nH]c2c1Cc1ccc(C(F)(F)F)cc1` as the compound, how does the viability at 72 h, up to 100 µM read?
**A.** The viability at 72 h, up to 100 µM was 80%.

**Q.** With `NC(=S)Nc1nn2c(=O)[nH]c(=S)[nH]c2c1Cc1ccc(-c2ccccc2)cc1` as the compound, how does the viability at 72 h, up to 100 µM read?
**A.** The viability at 72 h, up to 100 µM was 80%.

**Q.** With `NC(=S)Nc1nn2c(=O)[nH]c(=S)[nH]c2c1Cc1ccc(Oc2ccccc2)cc1` as the compound, how does the viability at 72 h, up to 100 µM read?
**A.** The viability at 72 h, up to 100 µM was 80%.

**Q.** For `NC(=S)Nc1nn2c(=O)[nH]c(=S)[nH]c2c1Cc1cccc2ccccc12`, which viability at 72 h, up to 100 µM is on record?
**A.** Its viability at 72 h, up to 100 µM is 80%.

**Q.** With `O=c1[nH]c(=O)c2cc[nH]c2[nH]1` [7-DEAZAXANTHINE] as the compound, how does the viability at 72 h, up to 100 µM read?
**A.** Its viability at 72 h, up to 100 µM is 80%.
